The text below walks through data of patent publication US10940139B2, “Compounds that interact with the Ras superfamily for the treatment of cancers, inflammatory diseases, rasopathies, and fibrotic disease” (Shy Therapeutics LLC, priority 2017, dated 2021).

The term IC50 denotes the concentration needed to halve the response being measured. Read a low IC50 as higher potency. One may read the inhibition as how much of the control response was suppressed. Low readings indicate a response near the control, high ones a response far below the control.

Molecules are shown by their SMILES.

The first test concerns MIA-PACA2 pancreatic cancer cell lines. The experiment in a line: Cell proliferation assay (CellTiter 96 AQueous One). The test is classed as cell-based. To be noted: Homo sapiens, MIA PaCa-2; MIA-PACA2, same assay as the % inhibition (standard conditions).
On to `COCC(C)Nc1nc(-c2ccccn2)nc2sc(C)c(-c3ccccc3)c12` (stereo not shown) [drawing 1510], for which the IC50 was more than 1000 nM.

The same test, now with this note: Homo sapiens, MIA PaCa-2; at 30 μM, MIA-PACA2.
`CC(C)(O)c1ccc(-c2csc3c(O)nc(-c4ccccn4)nc23)c(F)c1` [drawing 1756] gave an inhibition at 30 µM of 76 to 100%.
With `CC(C)(C)c1nc(C(=O)Nc2nnc(-c3ccccn3)[nH]2)cs1` [drawing 1454], the inhibition at 30 µM was in the range of 76 to 100%.
On the same count and under the same terms, with `CN(C)Cc1ccc(F)c(-c2csc3c(O)nc(-c4ccccn4)nc23)c1` [drawing 1777] the figure was 76 to 100%; with `CC1(O)CCN(C(=O)c2csc3c(O)nc(-c4ccccn4)nc23)CC1` [drawing 1572], 76 to 100%; with `CCN(CC)C(=O)c1sc2[nH]c(-c3ccccn3)nc(=O)c2c1C` [drawing 1496], 76 to 100%.
Regarding `COc1cccc(C2CN(C(=O)c3csc4c(O)nc(-c5ccccn5)nc34)CCN2)c1` (stereo not shown) [drawing 1666], the inhibition at 30 µM is 76 to 100%.
On the same count and under the same terms, with `N#CCc1ccc(OCC(=O)Nc2nnc(-c3ccccn3)[nH]2)cc1` [drawing 1462] the figure was 1 to 25%; with `O=C(COc1ccccc1)N1CCCc2c(O)nc(-c3ccccn3)nc21` [drawing 1543], 76 to 100%; with `COc1nccc(CCNC(=O)c2csc3nc(-c4ccccn4)nc(N4CCOCC4)c23)n1` [drawing 1773], 76 to 100%.
The same measure, in the same setting: with `COCC(C)Nc1nc(-c2ccccn2)nc2sc(C)c(-c3ccccc3)c12` (stereo not shown) [drawing 1510] the figure was 76 to 100%.
Still for that read-out and setting: with `O=c1nc(-c2ccccn2)[nH]c2c1sc1ccccc12` [drawing 1499] the figure was 76 to 100%.

In a further test the test system is MAPK phosphorylation in PANC-1 pancreatic cancer cell line. The experiment in a line: MAPK cell-based phosphorylation assay (cell-direct ELISA, EGF stimulation). To be noted: Homo sapiens. On the procedure: Cell lines: Tumor-derived pancreatic cancer cell lines PANC-1 were purchased from ATCC and were maintained according to ATCC recommendation.
Method: Cells were plated at 7500 cells/well density in 96-wells plate, starved over night, and the small molecules to be tested were added to the cells in the final concentration of 30 μM with 0.3% DMSO for 6 hours incubation at 37° C. For IC50 value determination, serial dilutions of compounds were added to cells under the same conditions. Next, cells were stimulated with 1.5 ng/ml EGF for 15 min. followed by cell fixation with 4% Formaldehyde in PBS at RT for 20 min. Phosphorylation level of MAPK was determined by Cell-direct ELISA.
Cell-direct ELISA: For each well, cells were permeabilized with PBS-Triton 0.1%, quenched with H2O2 0.6% in PBS-Triton 0.1%, and probed with anti-phospho-MAPK antibodies (R&D Systems) followed by HRP-conjugated secondary antibody (Jackson Immunoresearch, West Grove, Pa.). Next, a solution 50 μM of the fluorescent substrate AmpliFlu Red (Sigma) was added and incubated at RT for 20 min. At the end of the incubation time, fluorescence was measured at 595 nm on a microplate reader (AF2200; Eppendorf, Inc., Hamburg, Germany).
(In an ELISA, binding on a coated surface is turned into a signal by an enzyme label.)
Regarding `CC(C)(C)c1ccc(-c2csc3c(O)nc(-c4ccccn4)nc23)cc1` [drawing 1191], the IC50 lay in the range of 2 to 10 µM.
Still for that read-out and setting: with `CCc1cc(NNC(=O)c2ccc(C#N)cc2)nc(-c2ccccn2)n1` [drawing 1041] the figure was 2 to 10 µM; with `COCc1ccc(-c2csc3c(O)nc(-c4ccccn4)nc23)cc1F` [drawing 1190], 2 to 10 µM; with `O=C(c1csc2c(O)nc(-c3ccccn3)nc12)N1CCN(c2ccccc2)CC1` [drawing 1068], 2 to 10 µM.
On the same count and under the same terms, to `Oc1nc(-c2ccccn2)nc2c(-c3cccc4c3OCO4)csc12` [drawing 1193] belongs less than 2 µM.

The same test, now with this note: Homo sapiens, * = tested at 10 μM.
For `CC(C)COc1ccc(-c2c(-c3ccccc3)sc3c(O)nc(-c4nccn4C)nc23)cn1` [drawing 1347], the inhibition at 10 µM fell in the range of 51 to 75%.
The same measure, in the same setting: with `COCCNc1nc(-c2nccn2C)nc2sc(-c3ccc(OC)cc3)c(-c3ccccc3)c12` [drawing 1357] the figure was 51 to 75%; with `CC(C)(C)c1ccc(-c2csc3c(O)nc(-c4ccccn4)nc23)cc1` [drawing 1191], 76 to 100%; with `COCCNc1nc(-c2nccn2C)nc2sc(-c3ccccc3Cl)c(-c3ccccc3)c12` [drawing 1341], 76 to 100%.
Still for that read-out and setting: with `COCCNc1nc(-c2nccn2C)nc2sc(-c3ccccc3)c(-c3ccccc3)c12` [drawing 1295] the figure was 76 to 100%; with `COc1nccc(CCNC(=O)c2csc3nc(-c4ccccn4)nc(N4CCOCC4)c23)n1` [drawing 1234], 25 to 50%; with `COCc1ccc(-c2csc3c(O)nc(-c4ccccn4)nc23)cc1F` [drawing 1190], 76 to 100%.
Still for that read-out and setting: with `COc1ccc(CCNC(=O)c2csc3nc(-c4ccccn4)nc(N4CCS(=O)(=O)CC4)c23)cn1` [drawing 1195] the figure was 1 to 25%; with `COc1ccc(F)cc1-c1csc2c(O)nc(-c3ccccn3)nc12` [drawing 1213], 25 to 50%.
As to `Oc1nc(-c2ccccn2)nc2c(C3CCC3)csc12` [drawing 1250], the inhibition at 10 µM is 76 to 100%.
Still for that read-out and setting: with `Oc1nc(-c2ccccn2)nc2cc(-c3ccccc3)sc12` [drawing 1322] the figure was 25 to 50%; with `Cc1sc2c(O)nc(-c3nccn3C)nc2c1-c1ccccc1` [drawing 1354], 0%.
Still for that read-out and setting: with `OCC1(c2ccc(-c3nc(-c4ccccn4)nc(O)c3Oc3ccccc3)cc2)CC1` [drawing 1294] the figure was 1 to 25%; with `COc1ncc(CCC(=O)Nc2nc(-c3ccccn3)nc3sccc23)cn1`, 76 to 100%; with `COc1cc(C)c(-c2csc3c(O)nc(-c4ccccn4)nc23)cc1C` [drawing 1208], 1 to 25%.
The same measure, in the same setting: with `Oc1nc(-c2ccccn2)nc2cc(-c3ccncc3)sc12` [drawing 1321] the figure was 0%; with `COCCNc1nc(-c2nccn2C)nc2sc(C3CCOCC3)c(-c3ccccc3)c12` [drawing 1350], 51 to 75%.
Compound `Nc1nc(-c2ccccn2)nc(C(=O)NCCc2ccncc2)c1Oc1ccccc1` [drawing 1311] had an inhibition at 10 µM of 1 to 25%.
Turning to `Oc1nc(-c2ccccn2)nc2c(-c3cc(F)ccc3OC(F)F)csc12` [drawing 1202], the inhibition at 10 µM lay within 1 to 25%.
The same measure, in the same setting: to `Cn1ccnc1-c1nc(O)c2scc(-c3ccc(F)cc3F)c2n1` [drawing 1376] belongs 0%.
Still for that read-out and setting: with `Oc1nc(-c2ccccn2)nc2c(-c3cncnc3)csc12` [drawing 1265] the figure was 0%; with `Oc1nc(-c2ccccn2)nc2c(-c3cccc4c3OCO4)csc12` [drawing 1193], 76 to 100%; with `O=C(c1cc2nc(-c3ccccn3)nc(O)c2s1)N1CCN(c2ccccc2)CC1` [drawing 1188], 1 to 25%.
In the case of `Cn1ccnc1-c1nc(O)c2sc(-c3ccccc3)c(-c3ccccc3)c2n1` [drawing 1348], the inhibition at 10 µM fell in the range of 51 to 75%.
As to `COc1ccccc1-c1csc2c(O)nc(-c3ccccn3)nc12` [drawing 1209], the inhibition at 10 µM fell in the range of 1 to 25%.
The same measure, in the same setting: with `Cc1cc2nc(-c3ccccn3)nc(O)c2s1` [drawing 1246] the figure was 25 to 50%; with `COC(C)(C)c1ccc(-c2csc3c(O)nc(-c4nccn4C)nc23)cc1` [drawing 1378], 25 to 50%.
The same measure, in the same setting: with `COc1nc(-c2ccccn2)nc(Oc2cccc(C(F)(F)F)c2)c1O` [drawing 1325] the figure was 1 to 25%.
On the same count and under the same terms, to `CC(C)COc1ccc(-c2csc3c(O)nc(-c4ccccn4)nc23)cn1` [drawing 1216] belongs 51 to 75%; to `Cn1ccnc1-c1nc(O)c2scc(-c3ccc(C(C)(C)C)cc3)c2n1` [drawing 1379], 25 to 50%.

The test is the same for the next values; noted with them: Homo sapiens, at 30 μM.
`CC(C)C1=C(O)C2(CC2c2ccc(-c3ccccc3)cc2)C(C)CC1` (stereo not shown) [drawing 1056] returned an inhibition at 30 µM of 1 to 25%.
Still for that read-out and setting: with `CCOC(=O)c1ccnc(N2CCC(C)CC2c2ccc(CC)o2)c1[N+](=O)[O-]` (stereo not shown) the figure was 25 to 50%.
Same read-out and setting: with `CC(Oc1ccc(C(=O)Nc2nnc(-c3ccccn3)[nH]2)cn1)c1ccccc1` (stereo not shown) [drawing 1014] the figure was 25 to 50%; with `NC(=O)C1CCN(c2nc(-c3ccccn3)nc3scc(-c4ccccc4)c23)CC1` [drawing 1111], 1 to 25%.
Same read-out and setting: with `O=C(c1ccccn1)N1CCCc2c(O)nc(-c3ccccn3)nc21` [drawing 1062] the figure was 1 to 25%; with `Cc1cnc(-c2ccccn2)nc1NC(=O)COCc1ccc(C#N)cc1` [drawing 1174], 1 to 25%.
As for `CCc1cc(NNC(=O)c2ccc(C#N)cc2)nc(-c2ccccn2)n1` [drawing 1041], the inhibition at 30 µM lay within 76 to 100%.
The same measure, in the same setting: to `CC(C(=O)Nc1ccnc(-c2ccccn2)n1)c1ccc(C#N)cc1` (stereo not shown) [drawing 1158] belongs 1 to 25%.
The same measure, in the same setting: with `CC(C)C(=O)Nc1nc(CC(=O)Nc2nnc(-c3ccccn3)[nH]2)cs1` [drawing 1022] the figure was 1 to 25%; with `O=C(Nc1nc(-c2ccccn2)cs1)c1ccc(F)cc1` [drawing 1035], 1 to 25%; with `O=C(c1csc2c(O)nc(-c3ccccn3)nc12)N1CCN(c2ccccc2)CC1` [drawing 1068], 76 to 100%.
On the same count and under the same terms, to `O=C(c1csc2c(O)nc(-c3ccccn3)nc12)N1CCC(N2CCOCC2)CC1` [drawing 1067] belongs 1 to 25%; to `COc1ccc(CN(CC[S+]([O-])c2cc(Cl)ccc2Cl)C2CC2)cc1` (stereo not shown) [drawing 1050], 25 to 50%; to `O=C(c1csc2c(O)nc(-c3ccccn3)nc12)N1CCc2ccccc2CC1` [drawing 1072], 25 to 50%.
In the case of `O=C(c1csc2c(O)nc(-c3ccccn3)nc12)N1CCN(c2cccc(Cl)c2)CC1` [drawing 1120], the inhibition at 30 µM is 25 to 50%.
Still for that read-out and setting: to `Nc1nc(-c2ccccn2)nc2sccc12` [drawing 1180] belongs 1 to 25%; to `N#Cc1ccc(COCC(=O)Nc2nc(-c3ccccn3)nc3sccc23)cc1` [drawing 1161], 1 to 25%.
Still for that read-out and setting: with `CCOc1cc(S(=O)(=O)N(Cc2ccccc2)Cc2ccccc2)c(OCC)cc1C` [drawing 1049] the figure was 1 to 25%.
Same read-out and setting: to `N#Cc1ccc(CC(=O)Cc2ccnc(-c3ccccn3)n2)cc1` belongs 1 to 25%; to `N#Cc1csc2nc(-c3ccccn3)nc(N3CCOCC3)c12` [drawing 1178], 1 to 25%.
The compound `COC(=O)c1cc(NCC2NC(CC(C)C)=NO2)ccc1Cl` (stereo not shown) registered an inhibition at 30 µM of 1 to 25%.
Same read-out and setting: to `O=C(Nc1nnc(-c2ccccn2)[nH]1)c1ccn(-c2cccc(Cl)c2)n1` [drawing 1028] belongs 25 to 50%; to `c1ccc(-c2csc3nc(-c4ccccn4)nc(NN4CCOCC4)c23)cc1` [drawing 1106], 1 to 25%.
`O=C(c1csc2c(O)nc(-c3ccccn3)nc12)N1CCN(c2ccc(F)cc2)CC1` [drawing 1138] returned an inhibition at 30 µM of 1 to 25%.
`O=C(c1csc2c(O)nc(-c3ccccn3)nc12)N1CCN(c2ccc(O)c(Cl)c2)CC1` [drawing 1165] returned an inhibition at 30 µM of 1 to 25%.
On the same count and under the same terms, with `COc1cc(N2CCN(C(=O)c3csc4c(O)nc(-c5ccccn5)nc34)CC2)cc(OC)c1OC` [drawing 1141] the figure was 1 to 25%.
